Entries after “also recorded” stand apart in the source; their conditions may differ. Read-outs that look alike come from different tables or passages of the source. Bounds are passed on as bounds.

We go through seven molecules from publication PMC8275550, “Developmental Neurotoxicity of Fipronil and Rotenone on a Human Neuronal In Vitro Test System” (Neurotoxicity Research, 2021).

The test system of one data set is NT2 neurons. The data set can be described thus: cells. It counts as cell-based, human. To be noted: for Effect on neurite outgrowth, endpoint specific control compounds: concentration-response curves, supplementary Fig. 1. An excerpt:
Two photographs/well at × 20 magnification were taken.

The subject of data set [1] is NT2 precursor cells. To be noted: 100 nM cytochalasin D, 44 h, without affecting viability; ref Stern et al. [2014]; cited from earlier work.
Data set [2] relates to NT2 precursor cells. The data set can be described thus: cells. It counts as cell-based, human. The procedure: (§1) As established before (Stern et al. [2014]), NT2 precursor cells were seeded in 96-mm bacteriological grade Petri dishes (Greiner, Hamburg, Germany) at a density of 4 × 10^6–5 × 10^6 cells per dish. Within 24 h, cells formed free-floating spherical aggregates of 300–800 µm diameter. On the first day, 10 ml of culture medium was added to each Petri dish. On the next days, medium with 10 μM retinoic acid (RA) was added and changed every 2–3 days by transferring the cell suspension to centrifuge tubes and centrifuge at 200 × g for 7 min. After 9 days in culture, aggregates were gently resuspended using a Pasteur pipette, and seeded at 60,000 cells per well into black 96-well plates with flat transparent bottom (Nunc). Plates were lined with poly-D-lysine and laminin (10 µg/ml each), equipped with silicone stoppers from the Oris Cell Migration Assay (AMS Biotechnology, Abingdon, UK). Cells were allowed to adhere overnight. On the next day, stoppers were pulled leaving a monolayer of cells with a circular hole of 2-mm diameter. […] After one wash in PBS, cells were fixed for 15 min in PFA, washed twice in PBS-T and stained with DAPI (0.5 µg/ml) for 5 min, followed by two washes in PBS. A black 96-hole plastic mask leaving a central circular area of 2-mm diameter for each well was clipped to the bottom of the plate. This allows viewing only those cells that had migrated into the free areas left by the silicone stoppers during seeding (Fig. 1b). Migration was quantified by taking two photographs of each well and measuring the distance of the migration front from the black margin of the mask in using ImageJ. Occasional asymmetries caused by slight inaccuracies of silicone stopper placement were compensated by averaging measurements in four quadrants per well. […] Average null-migration values were subtracted from migrated distance before evaluation.

The conditions of data set [3]: cited from earlier work.
For data set [4], the system named is differentiating NT2 cells. Briefly: cells. It counts as cell-based, human. The procedure:
(§2) As established in our previous study (Stern et al. [2014]), cells were seeded into 96-well plates (Corning Costar, Kaiserslautern, Germany) at 80,000 cells per well and incubated in DMEM/F12 with 10 µM retinoic acid (RA) for 4 days (one media change). Cells were incubated for further 5 days (one media change) in media containing 10 µM RA and up to seven concentrations of a test compound. On day 9 (5-day exposition), cell viability was measured using a resazurin reduction assay (Trinova Biochem, Giessen, Germany). Subsequently, cells were fixed for 15 min in PFA and immunolabeled for ß-tubulin type III as above (Fig. 1a). For control purposes, photographs were taken at × 20 magnification as above. Neuronal differentiation was determined by measuring red fluorescence (excitation 568 nm, emission 603 nm) in a multiwell-plate reader (Infinite 200, TECAN, Germany). As a confirmation of the viability data, cell number was also quantified by measuring DAPI fluorescence (excitation 350 nm, emission 488 nm).

Data set [5] can be described thus: Resazurin reduction viability assay in the cell migration assay. The format is cell-based. To be noted: human. The procedure: as §1
Data set [6] is described as follows: Resazurin reduction viability assay in the neuronal differentiation assay. It counts as cell-based, human. To be noted: human. The procedure:
as §2

The next data set in a line: in vitro. Particulars: human.
Data set [7] relates to differentiating NT2 cells. Particulars: 333 µM sodium valproate; ref Stern et al. [2014]; cited from earlier work.
Data set [8] relates to differentiating NT2 cells. More on the design: method as in Stern et al. [2014]. To be noted: 333 µM sodium valproate; ref Stern et al. [2014]; cited from earlier work.
[9] abbreviates: yes = at least one concentration of rescuing compound with specific endpoint significantly less affected.
The mark [10] stands for this setting: co-applied with 2.4 µM rotenone.

Procedure for in vitro: Dispersed cells were seeded into two identical poly-D-lysine (10 µg/ml) coated 96-well plates (Corning Costar, Kaiserslautern, Germany) at a density of 10,000 cells per well. Cultures were exposed to up to seven different concentrations of a test compound in DMEM/F12 (six technical replicates per concentration) for 24 h. One plate was immediately fixed in 4% paraformaldehyde in PBS (PFA) for 15 min. After 24 h, while a resazurin reduction assay (2 h) was performed on the other plate. […] Fixed cells were washed in PBS containing 0.1% Triton X100 (PBS-T) and immunolabeled for ß-tubulin type III (monoclonal anti ßtubIII, 1:20,000) using a red fluorescent secondary antibody (goat anti mouse-alexaFluor568, Invitrogen, Germany, 1:250) and DAPI (0.1 µg/ml) as nuclear counterstain. Cells were examined on a Zeiss Axiovert 200 inverted microscope equipped with a CoolSnap camera (Photometrics, Tucson, AZ, USA) and MetaMorph software (Molecular Devices, Sunnyvale, CA, USA), or a Zeiss Axiocam50 mono and Zeiss ZENlite 2.6 blue edition software. Two photographs/well at × 20 magnification were taken. Lengths of all neurites in the field of view were measured in ImageJ (http://imagej.nih.gov/ij) using the ‚segmented line ‘ tool (Fig. 1c) and divided by the number of ß-tubulin III-positive cells.

`COc1cc2c(c(OC)c1OC)-c1ccc(OC)c(=O)cc1[C@@H](NC(C)=O)CC2` [Colchicine]: in the data set on NT2 neurons, the “Effect on neurite outgrowth, endpoint specific control compounds” value is on record as “specifically inhibits neurite outgrowth”.

`C=C1[C@@H](C)[C@H]2[C@H](Cc3ccccc3)NC(=O)[C@]23[C@H](OC(C)=O)/C=C/[C@@](C)(O)C(=O)[C@@H](C)C/C=C/[C@H]3[C@@H]1O` [Cytochalasin D, [(1R,2R,3E,5R,7S,9E,11R,12S,14S,15R,16S)-16-Benzyl-5,12-dihydroxy-5,7,14-trimethyl-13-methylidene-6,18-dioxo-17-azatricyclo[9.7.0.0^1,15]octadeca-3,9-dien-2-yl] acetate]: in the data set with NT2 precursor cells [1], the “Effect on cell motility, null-migration reference” value is recorded as “completely inhibits cell motility”. Also, the activity at 0.1 µM in the data set with NT2 neurons (Homo sapiens, Neuron, 100 nM cytochalasin D, read-out: Neurite outgrowth (% of control), endpoint-specific control) is below 25%. The “Effect on neurite outgrowth, endpoint specific control compounds” value with NT2 neurons is listed as “specifically inhibits neurite outgrowth”.

In the case of `N#Cc1nn(-c2c(Cl)cc(C(F)(F)F)cc2Cl)c(N)c1S(=O)(=O)C(F)(F)F` [Fipronil sulfone, 5-Amino-1-[2,6-dichloro-4-(trifluoromethyl)phenyl]-4-(trifluoromethylsulfonyl)pyrazole-3-carbonitrile], in the data set on NT2 precursor cells [2] (44 h exposure), the “Concentrations with significant differences between viability and migration” value is recorded as at least 15.63 µM. Also, the activity at 15.63 µM with NT2 precursor cells [2] (Homo sapiens, 15.63 µM fipronil sulfone, read-out: Migration (% of control)) was below 40%. For the same molecule, the IC50 with NT2 precursor cells [2] (Homo sapiens, 44 h exposure, read-out: IC50 migration (spec. EP)) was 14.2 µM; in the data set on NT2 neurons (Homo sapiens, 24 h exposure, total neurite length/neuron, normalized to solvent control, read-out: IC50 neurite outgrowth (spec. EP)), 34 µM; in data set [4] (Homo sapiens, NT2, 120 h, 5 days exposure, read-out: IC50 neuronal differentiation (ß-tub III, spec. EP)) it was 9.77 µM; in [5] (migration assay, 44 h exposure, > = highest tested concentration, read-out: IC50 general cytotoxicity (resazurin), unspec. EP) it was above 62.5 µM; in [6] (differentiation assay, 5 days exposure, read-out: IC50 general cytotoxicity (resazurin), unspec. EP), 15.5 µM; in the data set “in vitro”, 43 µM. Also, in the data set on NT2 precursor cells [2] (setting [9]), the “Rescue by NAC, migration” value is listed as “yes”. Also, the “Rescue by Y-27632, migration” value in the data set with NT2 precursor cells [2] (setting [9]) is “Yes”. Moreover, in data set [3] (ref Herin et al. [2011]), the “Blood concentration in workers with occupational fipronil exposure” value is “up to 0.1 µM”. The “Concentration measured in umbilical cord blood” value in data set [3] (urban population of South Korea, ref Kim et al. [2019]) is “up to 1.1 nM”. The activity at 7.81 µM in data set [4] (Homo sapiens, NT2, 7.81 µM fipronil sulfone, read-out: Neuronal differentiation (% of control)) amounted to 70%. Also, the “Rescue by NAC, neuronal differentiation” value in data set [4] (setting [9]) is “no”. Moreover, the viability in data set [5] (15.63 µM fipronil sulfone, read-out: Viability (% of control)) was 85%; in data set [6] (7.81 µM fipronil sulfone, read-out: General viability (% of control)) it was around 100%.

Regarding `CC(=O)N[C@@H](CS)C(=O)O` [NAC, (2R)-2-Acetamido-3-sulfanylpropanoic acid], the EC50 is 84 to 164 µM in the data set on NT2 precursor cells [2] (Homo sapiens, all three tested endpoints as worded in abstract, read-out: EC 50 ameliorating the inhibitory effects of fipronil on all three tested endpoints (abstract)); 84.6 µM with NT2 precursor cells [2] (Homo sapiens, co-applied with 15 µM fipronil sulfone, only slight alleviation, read-out: EC50 alleviation of fipronil sulfone-inhibited migration (NAC)); 161 µM in the data set on NT2 precursor cells [2] (Homo sapiens, co-applied with 50 µM fipronil, read-out: EC50 alleviation of fipronil-inhibited migration); 94.7 µM in [4] (Homo sapiens, NT2, co-applied with 15 µM fipronil, read-out: EC50 rescue of fipronil-inhibited neuronal differentiation). Further, in the data set with NT2 precursor cells [2] (co-applied with 122 nM rotenone, any concentration), the “Effect on rotenone inhibition of migration” value is given as “could not be alleviated”. Besides, the “Effect on fipronil sulfone inhibition of migration” value with NT2 precursor cells [2] (co-applied with 15 µM fipronil sulfone) is given as “only slightly alleviated”. In addition, the “Effect on fipronil-induced inhibition of migration” value in the data set on NT2 precursor cells [2] (co-applied with 50 µM fipronil) is listed as “could completely counteract”. In the data set on NT2 neurons (setting [10]), the “Effect on rotenone-induced NT2 neurite outgrowth inhibition” value is “could not change”. For the same molecule, the “Effect on fipronil inhibition of NT2 differentiation” value in data set [4] (370 µM NAC and higher, with 15 µM fipronil) is recorded as “completely negated”. The “Effect on rotenone inhibition of ß-tubulin III-immunofluorescence” value in data set [4] (co-applied with 11 nM rotenone, any concentration) was “could not alleviate”.

As for `CCCC(CCC)C(=O)[O-].[Na+]` [Sodium valproate, Sodium; 2-propylpentanoate], the “Neuronal differentiation (% of control), endpoint-specific control” value in [7] is given as “less than 50%”. In data set [8], the “General viability (% of control), endpoint-specific control” value is “above 85%”.

Consider `C[C@@H](N)[C@H]1CC[C@H](C(=O)Nc2ccncc2)CC1` [Y-27632, 4-[(1R)-1-Aminoethyl]-N-pyridin-4-ylcyclohexane-1-carboxamide], for which the activity at 50 µM in the data set with NT2 precursor cells [2] (Homo sapiens, 50 µM Y-27632, without affecting general viability, read-out: Precursor cell migration (% of control), endpoint-specific control) is above 125%; in the data set with NT2 neurons (Homo sapiens, Neuron, 50 µM Y-27632, without affecting general viability, read-out: Neurite outgrowth (% of control), endpoint-specific control), above 125%. For the same molecule, the EC50 in the data set with NT2 precursor cells [2] (Homo sapiens, co-applied with 122 nM rotenone, read-out: EC50 alleviation of rotenone-inhibited migration) was 8.3 µM; in the data set on NT2 precursor cells [2] (Homo sapiens, co-applied with 15 µM fipronil sulfone, read-out: EC50 alleviation of fipronil sulfone-inhibited migration (Y-27632)), 4.22 µM; in the data set on NT2 neurons (Homo sapiens, Neuron, co-applied with 2.4 µM rotenone, read-out: EC50 compensation of rotenone-inhibited neurite outgrowth), 12.1 µM. The “Effect on fipronil-induced inhibition of migration” value in the data set on NT2 precursor cells [2] (co-applied with 50 µM fipronil) was “could not alleviate; also recorded: could not be alleviated”. In addition, the “Effect on rotenone-induced NT2 neurite outgrowth inhibition” value in the data set on NT2 neurons (setting [10]) was “could alleviate”.

Turning to `CC(C)=CCC/C(C)=C/CC/C(C)=C/CC[C@]1(C)CCc2c(C)c(O)c(C)c(C)c2O1` [α-tocotrienol, (2R)-2,5,7,8-Tetramethyl-2-[(3E,7E)-4,8,12-trimethyltrideca-3,7,11-trienyl]-3,4-dihydrochromen-6-ol], the “Effect on rotenone-induced NT2 neurite outgrowth inhibition” value in the data set with NT2 neurons (setting [10]) is reported as “could not change”.
